Measured values published in patent US20180355369A1, “Method for Increasing Plant Stress Tolerance and Seed Dormancy” (The Australian National University, priority 2015, published 2018).
*1 amine or outer side, *2 acyl side, *3 side chain or, on linkers, in order; H or OH if unused. Where a SMILES comes first, the peptide text is derived from it. Bridges are numbered along the chain shown (N, C = ends). Roman numbers before positions name the chains, in order. [ ]: non-standard residue; d: D form. Actinocin(9to1) = Cc1c2oc3c(C)ccc(C(=O)[*:1])c3nc-2c(C(=O)[*:2])c(N)c1=O; NMeV = CN[C@H](C(=O)O)C(C)C; Sar = CNCC(=O)O

Tests used:
[1] = PAP accumulation in leaves after petiole feeding; assay type: in vivo, Arabidopsis; details: petiole feeding of PAP for 1 h, alone or co-applied with LiCl or ATP
Method: (§1) Five- to six-week-old plants were used to prepare epidermal peels. ABA at a concentration of 20 μM in water was root fed to hydroponically grown plants or sprayed onto leaves using a Studio Series IS-875 with a 0.5 mm nozzle opening (Iwata). We investigated if PAP accumulation in the double mutants could affect the production of NO during ABA-induced stomatal closure by treating epidermal peels with the inhibitor of NO synthase N(G)-methyl-L-arginine (NMA). For the investigation of the effect of different chemicals on stomatal closure, 20 μM ABA (Sigma-Aldrich), 100 mM LiCl, or 1 mM ATP, 1 mM or 100 μM PAP (Sigma-Aldrich) alone or in different combinations were prepared in infiltration buffer (1 mM PIPES KOH pH 6.0, 1 mM Sodium citrate, 1 mM KCl, 15 mM Sucrose) modified from a cordycepin infiltration buffer.
(§2) Total adenosines were extracted with 0.1 M HCl, derivatization with chloroacetaldehyde and quantified fluorometrically after HPLC fractionation. 3′-phosphoadenosine 5′-phosphate (PAP) quantification was performed by integrating the HPLC peak area and converting these to pmol units using standard curves of 1, 5 and 10 pmol standard.

stomata = assay: Stomatal aperture in epidermal leaf peels; assay type: cell-based, Arabidopsis; details: for stomatal closure response to exogenous PAP with co-treatment: LiCl (SAL1 inhibitor) or ATP (PAP antiporter co-substrate) with PAP; for effect of inhibitor on ABA-induced stomatal closure: epidermal peels treated with ABA plus inhibitor
Method: as §1
Measurements of stomatal aperture were performed with epidermal strips taken from five- to six-week-old plants. Fully developed leaves were cut and placed with their adaxial side onto cello tape. The vein was removed by razor blade and the abaxial epidermis was subsequently peeled off by using another strip of cello tape. To promote stomatal opening, the peels left adhered to the Scotch (810D Magic Tape, ¾ inch, 3M) were placed in petri dishes filled with stomatal opening solution (10 mM MES, 5 mM KCl, 50 μM CaCl2, pH 6.5) and incubated for 2 h at 22° C. under 150-200 μmol photons m^−2 s^−1 of light. Once the stomata were fully open, strips were maintained in the opening buffer or treated with various compounds according to the experiment. After treatment, photographs of stomata were taken using Leica microscope (Leica Microsystems, Wetzlar, Germany) at 20×. Stomatal aperture was measured using the image-processing software ImageJ. For stomatal aperture measurements, the ratio of stomatal pore width and length was used instead of width as this normalizes the pores of stomata of different size. Small stomata with a stomatal pore length of less than 7.5 μm were discarded. For each data point, 90 stomata were measured in 3 independent experiments. In each experiment, 10 stomata were measured in 3 epidermal strips per sample per treatment.
Measurements of stomatal closure in response to ABA, PAP, cordycepin and ATP treatments were performed on epidermal strips from Arabidopsis and barley plants grown under specific conditions. Plants were grown under high humidity (approximately 80% RH) and 12 h/12 h and 22/20° C. light/dark cycle in a growth chamber. Epidermal peels of newly expanding true leaves of three to four-week old plants. Stomatal apertures were measured in epidermal peels of newly expanded leaves. Peels were taken from the abaxial leaf surface and were fixed to the glass bottom of the experimental chamber after coating the chamber surface with an optically clear and pressure-sensitive silicon adhesive (Factor II, Tucson, USA). The attached epidermal peel is subsequently immersed in an opening buffer (OB: 50 mM KCl, 5 mM MES titrated to pH 6.1 with NaOH) and incubated, at plant growth conditions, for approximately 2 h. Stomatal images were taken using a bright-field microscope capable of 400× magnification for 10 minutes in OB and subsequently in Measuring Buffer [MB: 10 mM KCl, 5 mM MES titrated to pH 6.1 with Ca(OH)2] or PAP or cordycepin or ABA (dissolved in MB) for another 50 min. In total this was a 60 minute time course and images of the epidermal section were taken every 5 minutes using NIS Elements software (Nikon, Japan). Stomata aperture width and length were measured using Image J (NIH, USA). The pore area of each stomate was calculated using these values under the assumption that the area of a stomatal pore was that of an ellipse. Data are expressed as percentage over the control.

[2] = Accumulation of PAP analogues in leaves post-spraying; assay type: in vivo, Arabidopsis thaliana; details: foliar spray 100 mM, soil-grown wild type plants; 1 hr, 4 hr, 1 d, 4 d
Method: Five week-old soil-grown wild type Arabidopsis plants were sprayed using a Studio Series IS-875 with a 0.5 mm nozzle opening (Iwata). Each plant was sprayed with approximately 100 μl of different PAP analogues (100 mM) or mock buffer (1% DMSO) and then returned to standard growth conditions. 100 mg leaf tissue was harvested and snap-frozen in liquid nitrogen at various timepoints post-spraying (1 hr, 4 hr, 1 d and 4 d). Total adenosines were extracted, derivatized and quantified by HPLC. Identification and quantification of Analogues 8, 12 and 13 were performed by comparison to authentic standards. Triplicate treatments were carried out, and data presented as mean+/−standard deviation.

AtSAL1 = molecular target: T1, AtSAL1 (Arabidopsis thaliana, UniProt Q42546); assay: Inhibition of in vitro AtSAL1 activity against PAP; assay type: biochemical; details: against 50 μM PAP, Analogue 12 at 0, 3.35, 13.4 or 50 μM
T1 construct: Ubiquitin fusion partner (pHUE vector) (cleaved yes); made in house; host or cells: Escherichia coli BL21 DE3
T1 sequence (Q42546 1-353): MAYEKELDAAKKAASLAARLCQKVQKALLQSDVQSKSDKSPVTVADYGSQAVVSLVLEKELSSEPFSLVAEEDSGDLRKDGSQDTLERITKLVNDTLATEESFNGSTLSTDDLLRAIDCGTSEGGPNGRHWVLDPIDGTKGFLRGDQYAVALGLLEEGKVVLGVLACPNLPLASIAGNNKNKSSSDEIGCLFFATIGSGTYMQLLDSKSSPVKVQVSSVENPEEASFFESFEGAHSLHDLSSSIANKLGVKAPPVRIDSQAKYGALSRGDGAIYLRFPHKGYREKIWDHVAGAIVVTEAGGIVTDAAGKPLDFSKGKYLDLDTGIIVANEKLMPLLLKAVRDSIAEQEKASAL
Method: For estimation of inhibition of AtSAL1 activity by PAP analogue 12, 200 ng of purified recombinant SAL1 protein was incubated in 75 μl 2×activity buffer (200 mM Tris-MES pH 7.5, 2 mM Mg acetate) and Analogue 12 at a concentration of 0, 3.35, 13.4 or 50 μM for 1 hour at room temperature. The samples were then placed on ice, and 75 μl PAP added for a final reaction condition of 100 mM Tris-MES pH 7.5, 1 mM Mg acetate and 50 μM PAP. The reaction was allowed to proceed at 25 degrees Celsius for 5 minutes, then stopped by flash freezing in liquid nitrogen. The AMP formed from degradation of PAP by SAL1 was quantified by derivatization and resolving on HPLC. Duplicate treatments were carried out, and data presented as mean+/−standard error.

guard cells = assay: ROS accumulation in guard cells of epidermal peels; assay type: cell-based, Arabidopsis; details: wild type, ost1-2 and ost1-2 alx8
Method: The ABA- and PAP-induced accumulation of ROS in guard cells of epidermal peels was measured using dichlorofluorescein diacetate (H2DCFDA, Invitrogen). After 2 h of incubation in OB, the epidermal peel was incubated with 20 μM dye dissolved in DMSO and MB for 30 min, and then rinsed with MB three times. Epidermal peels were incubated in ABA or PAP dissolved in MB (or MB only as a negative control) for 10 min. Fluorescence images were taken using a Leica inverted confocal microscope controlled by the LAS AF software (Leica Microsystems, Germany). We used the 496-nm excitation line of an argon multiline laser. H2DCFDA fluorescence emission was detected at 505 to 525 nm. Chloroplast fluorescence was detected at 680 to 700 nm in order to separate the autofluorescence of chlorophyll in guard cells. Images were quantified with Image J software (National Institutes of Health, USA). The background signal was measured from the empty region of the similar size and subtracted from the stomata signal to obtain corrected total stomatal fluorescence values. Each stomate was considered to represent a single biological unit and thus fluorescence values were averaged across all stomata at each time point for each treatment. At least three biological replicates were measured for each treatment.

[3] = PAP quantification in leaves after exogenous ABA; assay type: in vivo, Arabidopsis; details: wild type leaves
Method: as §1, §2

For [Cl-].[Li+] [LiCl], the “accumulation of PAP in leaves” value [1] was “significantly enhanced” and the “stomatal closure response to exogenous PAP with co-treatment” value (stomata) was “a stronger, cumulative response was achieved”.

In the case of COC(=O)C1OC(n2cnc3c(N)ncnc32)C(O)C1O (stereo not shown) [Analogue 13, methyl 5-(6-amino-9H-purin-9-yl)-3,4-dihydroxytetrahydro-2-furancarboxylate], the “accumulation of PAP analogue in leaf tissue after spraying” value (“accumulation of PAP analogue” below) [2] is reported as “showed rapid accumulation of PAP analogues to levels comparable with those for PAP found in leaf tissue in vivo”.

With Nc1ncnc2c1nc(S)n2C1OC(CO)C(O)C1O (stereo not shown) [Analogue 12, 2-(6-amino-8-mercapto-9H-purin-9-yl)-5-(hydroxymethyl) tetrahydro-3,4-furandiol] the “accumulation of PAP analogue” value [2] was “showed rapid accumulation of PAP analogues to levels comparable with those for PAP found in leaf tissue in vivo”, the “inhibition of in vitro SAL1 activity” value (AtSAL1) was “inhibition of in vitro SAL1 activity” and the “inhibition of in vitro SAL1 activity” value (AtSAL1; listed as analogue 12) was “found to inhibit in vitro SAL1 activity”.

With Cc1c2oc3c(C)ccc(C(=O)N[C@@H]4C(=O)N[C@H](C(C)C)C(=O)N5CCC[C@H]5C(=O)N(C)CC(=O)N(C)[C@@H](C(C)C)C(=O)O[C@@H]4C)c3nc-2c(C(=O)N[C@@H]2C(=O)N[C@H](C(C)C)C(=O)N3CCC[C@H]3C(=O)N(C)CC(=O)N(C)[C@@H](C(C)C)C(=O)O[C@@H]2C)c(N)c1=O [actinomycin D] (I: T[dV]P[Sar][NMeV] / II: T[dV]P[Sar][NMeV]; ester I:1-I:C, II:1-II:C; linker I:N-II:N via Actinocin(9to1)) the “effect of inhibitor on ABA-induced stomatal closure” value (stomata) was “suppressed ABA-mediated closure to a lesser extent in ost1-2 alx8 than in the wild type”.

For CNC(=N)NCCC[C@H](N)C(=O)O [NMA, N(G)-methyl-L-arginine], the “effect of inhibitor on ABA-induced stomatal closure” value (stomata) was “reduced ABA-induced stomatal closure in Col-0Ler”.

In the case of CCNC(=O)C1OC(n2cnc3c(N)ncnc32)C(O)C1O (stereo not shown) [Analogue 8, 5-(6-amino-9H-purin-9-yl)-N-ethyl-3,4-dihydroxytetrahydro-2-furancarboxamide], the “accumulation of PAP analogue” value [2] is reported as “showed rapid accumulation of PAP analogues to levels comparable with those for PAP found in leaf tissue in vivo”.

In the case of Nc1ncnc2c1ncn2[C@@H]1O[C@H](CO)C[C@H]1O [Analogue 16, 3′-deoxyadenosine], the “stomatal closure in leaf peels” value (stomata; leaf peels of wild type plants, 1 hr, PAP 100 μM, ABA 100 μM, cordycepin 10 μM) is reported as “elicited rapid stomatal closure similar to the PAP response”.

With CC1=CC(=O)CC(C)(C)C1(O)/C=C/C(C)=C\C(=O)O (stereo not shown) [ABA] the “time to ABA-induced stomatal closure” value (stomata; epidermal peels, FIGS. 5B and 5D) was under 10 min, the “ROS burst in guard cells” value (guard cells) was “ROS burst known to stimulate stomatal closure was observed in response to ABA treatment in wild type” and the “PAP accumulation stimulated by exogenous ABA” value [3] was “stimulates PAP accumulation by four fold”.

For Nc1ncnc2c1ncn2[C@@H]1O[C@H](COP(=O)(O)OP(=O)(O)OP(=O)(O)O)[C@@H](O)[C@H]1O [ATP], the “accumulation of PAP in leaves” value [1] was “significantly enhanced” and the “stomatal closure response to exogenous PAP with co-treatment” value (stomata) was “a stronger, cumulative response was achieved”.

B1: Arabidopsis thaliana SAL1, mature recombinant protein (transit peptide excluded) (protein)
chain: MAYEKELDAAKKAASLAARLCQKVQKALLQSDVQSKSDKSPVTVADYGSQAVVSLVLEKELSSEPFSLVAEEDSGDLRKDGSQDTLERITKLVNDTLATEESFNGSTLSTDDLLRAIDCGTSEGGPNGRHWVLDPIDGTKGFLRGDQYAVALGLLEEGKVVLGVLACPNLPLASIAGNNKNKSSSDEIGCLFFATIGSGTYMQLLDSKSSPVKVQVSSVENPEEASFFESFEGAHSLHDLSSSIANKLGVKAPPVRIDSQAKYGALSRGDGAIYLRFPHKGYREKIWDHVAGAIVVTEAGGIVTDAAGKPLDFSKGKYLDLDTGIIVANEKLMPLLLKAVRDSIAEQEKASAL
With B1 the “kcat (enzyme activity against PAP)” value was “up to 6-fold decrease in kcat for the oxidized dimeric rSAL1”.
